# Reference: patent US20040068005A1, “Pharmaceutical combinations” (priority 2000, published 2004)
# Legend:
# normal conscious rabbits [1] = assay: Hyperinsulinaemic euglycaemic glucose clamping (insulin sensitivity), normal rabbits; format: in vivo, New Zealand white rabbits
# Experimental: (§1) The experiments are carried out with adult, male New Zealand white rabbits, weighing 3.0-3.5 kg, housed as described in Am. J. Physiol 1994, Heart Circ. Physiol, 35: H2033-H2041 and J. Moll Cell.. Cardiol. 1997, 29: 1977-1983.
# (§2) To estimate insulin sensitivity and/or insulin resistance, hyperinsulinaemic (100 eU/ml) euglycaemic (5.5 mM/l) glucose clamping was used. The glucose clamping values (M) were established as values of glucose infusion rates expressed in mg/kg/min to maintain blood glucose level at 5.5 mM/l.
# [2] = tested on: hypercholesterolaemic, insulin resistant conscious rabbits; assay: Hyperinsulinaemic euglycaemic glucose clamping (insulin sensitivity), hypercholesterolaemic rabbits; format: in vivo, New Zealand white rabbits; details: for Glucose infusion rate / M values of hyperinsulinaemic and euglycaemic glucose clamping: hypercholesterolaemic; for Glucose infusion rate: insulin resistant rabbit; for Insulin sensitivity: percent of means, control = 100
# Experimental: (§3) The experiments are carried out with adult, male New Zealand white rabbits, weighing 3.0-3.5 kg, housed as described in Am. […] Physiol, 35: H2033-H2041 and J. Moll Cell.. Cardiol.
# as §2
# normal conscious rabbits [3] = assay: Ventricular pacing-induced myocardial ischaemia (ST-segment elevation), normal rabbits; format: in vivo, New Zealand white rabbits
# Experimental: as §3
# (§4) The induction of global myocardial ischaemia was based on a method described as above.
# human = details: controlled release ISMN preparations; cited from earlier work
# [4] = tested on: isolated pancreatic islets; details: Am. J. Physiol 1996;271;C1098-C1102; cited from earlier work
# healthy volunteers = assay: Oral glucose tolerance test (OGTT) with nitroglycerin patch, plasma glucose and immunoreactive insulin; format: in vivo, human; details: for Insulin / Glucose: OGTT
# Experimental: Twenty persons were studied.
# Between 2 oral glucose, tolerance tests (OGTT) the volunteers were randomized for receiving either active NITRODERM TTS 10 (releasing approx. 0.4 mg hours^−1 nitroglycerin) or placebo patches. The study was carried out and evaluated in a double blind fashion. The patients received the glucose solution at 8 a.m. Venous blood samples were taken during fasting (immediately before glucose) and at 15, 30, 60, 90, 120 and 180 minutes after the glucose load. The samples evaluated for plasma glucose level (mmol 1^−1) and immunoreactive insulin responses (eU ml^−1). Plasma glucose was determined by means of an autoanalyzer, using the glucoseoxidease method. Immunoreactive insulin levels were assessed by radioimmunoassay method using antihuman antibody. During the study, two ECG leads (II and V1 or V6) and arterial blood pressure were continuously monitored.
# [5] = tested on: streptozotocin diabetic rabbits; assay: Femoral nerve conduction velocity, streptozotocin diabetes; format: in vivo, New Zealand white rabbits
# Experimental: as §1
# These series of experiments were carried out to verify/exclude sensory neuropathy. Left saphenous nerve conduction velocity was determined as described in Eur J. Pharmacol 1999, 386:83-88.
# Streptozotocin (40 mg/kg i.v.) produced a decrease in nerve conduction velocity in femoral “A” and “C” fibres, respectively, as determined 8 weeks after streptozotocin injection. […] The combination of any of these drugs with nitroglycerin yielded an improvement of conduction velocity in streptozotocin-diabetic aminals similar to that seen with nitroglycerin alone.
# [6] = tested on: hypercholesterolaemic, insulin resistant conscious rabbits; assay: Ventricular pacing-induced myocardial ischaemia (ST-segment elevation), hypercholesterolaemic rabbits; format: in vivo, New Zealand white rabbits; details: hypercholesterolaemic
# Experimental: as §3, §4
# [7] = tested on: hypercholesterolaemic, insulin resistant rabbits; assay: Femoral nerve conduction velocity, hyperlipidaemia-induced insulin resistance; format: in vivo, New Zealand white rabbits
# Experimental: as §3
# These series of experiments were carried out to verify/exclude sensory neuropathy.
# [8] = normal rabbits, 2 mg/kg per os ISMN
# [9] = normal rabbits, 2 mg/kg per os controlled release ISMN
# [10] = normal rabbits, 4 mg/kg per os controlled release ISMN
# [11] = sampling 0 (control), active patch approx. 0.4 mg/hour nitroglycerin, n=20
# [12] = Table I, sampling 0 (control), active patch
smiles,measurement,setting,value
"O=[N+]([O-])O[C@@H]1CO[C@H]2[C@@H]1OC[C@@H]2O [ISMN, isosorbide-5-mononitrate]",Glucose infusion rate,"normal conscious rabbits [1]; normal rabbit, metformin 100 mg/kg p.os, ISMN controlled release 5 mg/kg p.os",16.30 ± 0.8200 mg/kg/min
same,metabolic (insulin sensitising) and anti-ischaemic effect,"normal conscious rabbits [1]; normal rabbits, 1 mg/kg per os ISMN",without any effect
same,Glucose infusion rate,"normal conscious rabbits [1]; normal rabbits, 1 mg/kg per os controlled release ISMN, control 13.6",14.2 ± 0.8 mg/kg/min
same,metabolic (insulin sensitising) effect,normal conscious rabbits [1]; [8],significant metabolic effect
same,Glucose infusion rate,normal conscious rabbits [1]; [9],16.0 ± 0.9 mg/kg/min
same,metabolic and anti-ischaemic effects,"normal conscious rabbits [1]; normal rabbits, 4 mg/kg and higher doses per os ISMN",metabolic and anti-ischaemic effects
same,Glucose infusion rate,normal conscious rabbits [1]; [10],16.3 ± 1.0 mg/kg/min
same,M values of hyperinsulinaemic and euglycaemic glucose clamping,"normal conscious rabbits [1]; normal rabbits, drug alone vs control, isosorbide-5-mononitrate 1 mg/kg/day (Olicard 40), metformin 100 mg/kg/day p.os over 3 days",increased
same,threshold dose of insulin sensitising effect as share of the threshold dose of the anti-ischaemic effect,"normal conscious rabbits [1]; normal rabbits, per os ISMN",50%
same,threshold dose of the insulin sensitising effect,"normal conscious rabbits [1]; normal rabbits, per os extended-release ISMN",2 mg/kg
same,Glucose infusion rate,"[2]; metformin 100 mg/kg p.os, ISMN controlled release 5 mg/kg p.os",14.00 ± 0.8900 mg/kg/min
same,M values of hyperinsulinaemic and euglycaemic glucose clamping,"[2]; insulin resistant rabbits vs control, ISMN 5 mg/kg/day (Olicard 40), metformin 100 mg/kg/day p.os over 3 days",significantly increased
same,Insulin sensitivity,"[2]; ISMN controlled release 5 mg/kg p.os, metformin 100 mg/kg p.os",144.4%
same,ST-segment elevation,"normal conscious rabbits [3]; normal rabbits, 1 mg/kg per os controlled release ISMN, control 2.0",2.0 ± 0.09 mV
same,anti-ischaemic effect (changes in ST-segment elevation),normal conscious rabbits [3]; [8],statistically insignificant anti-ischaemic effect
same,ST-segment elevation,normal conscious rabbits [3]; [9],1.9 ± 0.16 mV
same,ST-segment elevation,normal conscious rabbits [3]; [10],1.4 ± 0.12 mV
same,threshold anti-anginal dose,human,30 mg/day
"N=c1c[n+](N2CCOCC2)[n-]o1 [SIN-1, 3-morpholinosydnonimine]",insulin release,[4],inhibit insulin release
"O=[N+]([O-])OCC(CO[N+](=O)[O-])O[N+](=O)[O-] [Nitroglycerin, nitroglycerin]",Insulin,"healthy volunteers; 15 min, active patch",38.9 ± 4.4^#+ μU ml^−1
same,Glucose,"healthy volunteers; 15 min after glucose load, active patch",7.3 ± 1.1^+ mmol l^−1
same,Glucose,"healthy volunteers; 30 min, active patch",6.1 ± 0.6^+ mmol l^−1
same,Insulin,"healthy volunteers; 30 min, active patch",36.3 ± 5.0^#+ μU ml^−1
same,Glucose,"healthy volunteers; 60 min, active patch",5.5 ± 0.4 mmol/L
same,Insulin,"healthy volunteers; 60 min, active patch",25.6 ± 3.3^#+ μU ml^−1
same,Glucose,"healthy volunteers; 90 min, active patch",4.7 ± 0.7 mmol/L
same,Insulin,"healthy volunteers; 90 min, active patch",24.1 ± 2.9^#+ μU ml^−1
same,Glucose,"healthy volunteers; 120 min, active patch",4.2 ± 0.3 mmol/L
same,Insulin,"healthy volunteers; 120 min, active patch",15.2 ± 2.4^+ μU ml^−1
same,Glucose,"healthy volunteers; 180 min, active patch",4.5 ± 0.5 mmol/L
same,Insulin,"healthy volunteers; 180 min, active patch",14.4 ± 2.6^ μU ml^−1
same,Glucose,healthy volunteers; [11],4.2 ± 0.3 mmol/L
same,Insulin,healthy volunteers; [11],8.2 ± 0.9^ μU ml^−1
same,Glucose,"healthy volunteers; Table I, 15 min, active patch",7.3 ± 1.1 mmol⁻¹
same,Insulin,"healthy volunteers; Table I, 15 min, active patch",38.9 ± 4.4 μU mL^−1
same,Glucose,"healthy volunteers; Table I, 30 min, active patch",6.1 ± 0.6 mmol⁻¹
same,Insulin,"healthy volunteers; Table I, 30 min, active patch",36.3 ± 5.0 μU mL^−1
same,Glucose,"healthy volunteers; Table I, 60 min, active patch",5.5 ± 0.4 mmol⁻¹
same,Insulin,"healthy volunteers; Table I, 60 min, active patch",25.6 ± 3.3 μU mL^−1
same,Glucose,"healthy volunteers; Table I, 90 min, active patch",4.7 ± 0.7 mmol⁻¹
same,Insulin,"healthy volunteers; Table I, 90 min, active patch",24.1 ± 2.9 μU mL^−1
same,Glucose,"healthy volunteers; Table I, 120 min, active patch",4.2 ± 0.3 mmol⁻¹
same,Insulin,"healthy volunteers; Table I, 120 min, active patch",15.2 ± 2.4 μU mL^−1
same,Glucose,"healthy volunteers; Table I, 180 min, active patch",4.5 ± 0.5 mmol⁻¹
same,Insulin,"healthy volunteers; Table I, 180 min, active patch",14.4 ± 2.6 μU mL^−1
same,Glucose,healthy volunteers; [12],4.2 ± 0.3 mmol⁻¹
same,Insulin,healthy volunteers; [12],8.2 ± 0.9 μU mL^−1
same,plasma glucose levels,healthy volunteers; active vs placebo patch group,no differences
same,increase in insulin in response to oral glucose load,healthy volunteers; compared to placebo patch group,significantly decreased
same,Nerve conduction velocity,"[5]; femoral “C” fibers, streptozotocin diabetic rabbit, with active patch (nitroglycerin 0.07 mg/kg/h), alone (Control) or with the drug",3.6 ± 0.2 dm/s
same,nerve conduction in “C” fibres,"[5]; streptozotocin-diabetes model, drug alone, nitroglycerin 12-h patch on vs 12-h patch off over three days",significantly improved
same,“A” fibre conduction,"[5]; streptozotocin-diabetes model, nitroglycerin patch, data not shown",marginal amelioration
same,ST-segment elevation,"[6]; insulin resistant rabbit, with active patch (nitroglycerin 0.07 mg/kg/h), alone (Control) or with the drug",1.4 ± 0.10 mV
same,intracavitary ST-segment elevation / ischaemic changes produced by VOP,"[6]; insulin resistant rabbits, drug alone",significantly decreased
same,Glucose infusion rate,"normal conscious rabbits [1]; normal rabbit, with active patch (nitroglycerin 0.07 mg/kg/h), alone (Control) or together with the drug, troglitazon 70 mg/kg p.os, metformin 5 mg/kg i.v., glibenclamide 1 mg/kg i.v., idazoxan 2 mg/kg i.v.",16.857 mg/kg/min
same,decrease in nerve conduction velocity in “C” fibres after atherogenic diet,"[7]; eight-week atherogenic diet, drug alone",attenuated
same,Nerve conduction velocity,"[7]; femoral “C” fibers, hypercholesterolaemic, insulin resistant rabbit, with active patch (nitroglycerin 0.07 mg/kg/h), alone (Control) or with troglitazon 70 mg/kg p.os",4.3 ± 0.4 dm/s
same,Glucose infusion rate,"[2]; with active patch (nitroglycerin 0.07 mg/kg/h), alone (Control) or together with the drug, same doses",12.667 mg/kg/min
same,M values of hyperinsulinaemic and euglycaemic glucose clamping,"[2]; insulin resistant rabbits, nitroglycerin (0, 0.7 mg/kg/h) alone",increased
same,Insulin sensitivity,"[2]; nitroglycerin patch 0.07 mg/kg/h, metformin 5 mg/kg i.v., troglitazon 70 mg/kg p.os",140.7%
same,intracavitary ST-segment elevation,"normal conscious rabbits [3]; normal conscious rabbits, drug alone",significantly decreased
same,ST-segment elevation,"normal conscious rabbits [3]; normal rabbit, with active patch (nitroglycerin 0.07 mg/kg/h), alone (Control) or with the drug",0.7 ± 0.10 mV
